Measured values reported in patent US20180368410A1, “MICROBIOCIDAL OXADIAZOLE DERIVATIVES” (SYNGENTA PARTICIPATIONS AG, priority 2015, published 2018).

Legend:
[1] = tested on: Puccinia recondita f. Sp. Tritici; experiment: Puccinia recondita f. sp. tritici / wheat / leaf disc preventative (brown rust); assay type: in vivo, Puccinia recondita f. sp. tritici on wheat cv. Kanzler; settings: foliar, 200 ppm in the applied formulation, inoculated 1 day after application, assessed 7 to 9 days after application, vs untreated control leaf disks, read-out: disease control
Method in brief: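 Wheat cv. Kanzler leaf segments on agar were sprayed with compound (DMSO stock diluted with 0.025% Tween20) 1 day before inoculation with spores. Segments were held at 19 °C, 75% rh, 12 h light/dark. Percent disease control versus untreated was scored 7–9 days after application.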

[2] = tested on: Puccinia recondita f. Sp. Triticil; experiment: Puccinia recondita f. sp. tritici / wheat / leaf disc curative (brown rust); assay type: in vivo, Puccinia recondita f. sp. tritici on wheat cv. Kanzler; settings: foliar, 200 ppm in the applied formulation, applied 1 day after inoculation, assessed 6 to 8 days after application, vs untreated control leaf disks, read-out: disease control
Procedure: (§1) Leaf disks or leaf segments of various plant species are cut from plants grown in a greenhouse. The cut leaf disks or segments are placed in multiwell plates (24-well format) onto water agar. The leaf disks are sprayed with a test solution before (preventative) or after (curative) inoculation. Compounds to be tested are prepared as DMSO solutions (max. 10 mg/ml) which are diluted to the appropriate concentration with 0.025% Tween20 just before spraying. The inoculated leaf disks or segments are incubated under defined conditions (temperature, relative humidity, light, etc.) according to the respective test system. A single evaluation of disease level is carried out 3 to 14 days after inoculation, depending on the pathosystem. Percent disease control relative to the untreated check leaf disks or segments is then calculated.
Wheat leaf segments cv. Kanzler are placed on agar in multiwell plates (24-well format). The leaf segments are then inoculated with a spore suspension of the fungus. Plates were stored in darkness at 19° C. and 75% relative humidity. The formulated test compound diluted in water was applied 1 day after inoculation. The leaf segments were incubated at 19° C. and 75% relative humidity under a light regime of 12 hours light/12 hours darkness in a climate cabinet and the activity of a compound was assessed as percent disease control compared to untreated when an appropriate level of disease damage appears in untreated check leaf segments (6 to 8 days after application).
(§2) The following compounds at 200 ppm in the applied formulation give at least 80% disease control in this test when compared to untreated control leaf disks under the same conditions, which show extensive disease development.

Phakopsora pachyrhizi = Phakopsora pachyrhizi / soybean / leaf disc preventative (Asian soybean rust); assay type: in vivo, Phakopsora pachyrhizi on soybean; settings: foliar, 200 ppm in the applied formulation, inoculated one day after application, assessed 12 to 14 days after application, vs untreated control leaf disks, read-out: disease control
Procedure: as §1
Soybean leaf disks are placed on water agar in multiwell plates (24-well format) and sprayed with the formulated test compound diluted in water. One day after application leaf discs are inoculated by spraying a spore suspension on the lower leaf surface. After an incubation period in a climate cabinet of 24-36 hours in darkness at 20° C. and 75% rh leaf disc are kept at 20° C. with 12 h light/day and 75% rh. The activity of a compound is assessed as percent disease control compared to untreated when an appropriate level of disease damage appears in untreated check leaf disks (12 to 14 days after application).
as §2

[3] = tested on: Glomerella Lacenarium (Colletotrichum lacenarium); experiment: Glomerella lagenarium (Colletotrichum lagenarium) liquid culture / cucumber / preventative (anthracnose); assay type: cell-based; settings: 20 ppm in the applied formulation, liquid culture in PDB, 24° C., inhibition of growth measured photometrically 3 to 4 days after application, vs untreated control, read-out: disease control
Method in brief: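 Photometric measurement of fungal growth inhibition 3 to 4 days after application gives percent activity relative to untreated check. Conidia were suspended in potato dextrose broth and combined with DMSO compound solutions; incubation at 24° C.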

O=C(CC1CCCC1)NCc1ccc(-c2noc(C(F)(F)F)n2)cc1 [Compound 1.7, 2-cyclopentyl-N-[[4-[5-(trifluoromethyl)-1,2,4-oxadiazol-3-yl]phenyl]methyl]acetamide]
≥ 80%: pest or weed control at 200 ppm [1] | pest or weed control at 200 ppm [2] | pest or weed control at 200 ppm (Phakopsora pachyrhizi) | inhibition of growth at 20 ppm [3]

CC1(C(=O)NCCc2ccc(-c3noc(C(F)(F)F)n3)cc2)COC1 [Compound 1.104, 3-methyl-N-[2-[4-[5-(trifluoromethyl)-1,2,4-oxadiazol-3-yl]phenyl]ethyl]oxetane-3-carboxamide]
≥ 80%: pest or weed control at 200 ppm [1] | pest or weed control at 200 ppm [2] | pest or weed control at 200 ppm (Phakopsora pachyrhizi) | inhibition of growth at 20 ppm [3]

CC1(C(=O)NCc2ccc(-c3noc(C(F)(F)F)n3)cc2F)CC1 [Compound 1.67, N-[[2-fluoro-4-[5-(trifluoromethyl)-1,2,4-oxadiazol-3-yl]phenyl]methyl]-1-methyl-cyclopropanecarboxamide]
≥ 80%: pest or weed control at 200 ppm [1] | pest or weed control at 200 ppm [2] | pest or weed control at 200 ppm (Phakopsora pachyrhizi) | inhibition of growth at 20 ppm [3]

CC1(C(=O)NCc2ccc(-c3noc(C(F)(F)F)n3)c(F)c2F)CC1 [Compound 1.78, N-[[2,3-difluoro-4-[5-(trifluoromethyl)-1,2,4-oxadiazol-3-yl]phenyl]methyl]-1-methyl-cyclopropanecarboxamide]
≥ 80%: pest or weed control at 200 ppm [1] | pest or weed control at 200 ppm [2] | pest or weed control at 200 ppm (Phakopsora pachyrhizi) | inhibition of growth at 20 ppm [3]

O=C(CC1CC1)NCc1ccc(-c2noc(C(F)(F)F)n2)c(F)c1F [Compound 1.73, 2-cyclopropyl-N-[[2,3-difluoro-4-[5-(trifluoromethyl)-1,2,4-oxadiazol-3-yl]phenyl]methyl]acetamide]
≥ 80%: pest or weed control at 200 ppm [1] | pest or weed control at 200 ppm [2] | pest or weed control at 200 ppm (Phakopsora pachyrhizi) | inhibition of growth at 20 ppm [3]

O=C(NCc1ccc(-c2noc(C(F)(F)F)n2)c(F)c1)C1CC1(F)F (stereo not drawn) [Compound 1.91, 2,2-difluoro-N-[[3-fluoro-4-[5-(trifluoromethyl)-1,2,4-oxadiazol-3-yl]phenyl]methyl] cyclopropanecarboxamide]
≥ 80%: pest or weed control at 200 ppm [1] | pest or weed control at 200 ppm [2] | pest or weed control at 200 ppm (Phakopsora pachyrhizi) | inhibition of growth at 20 ppm [3]

O=C(CC1CC1)NCc1ccc(-c2noc(C(F)(F)F)n2)cc1 [Compound 1.53, 2-cyclopropyl-N-[[4-[5-(trifluoromethyl)-1,2,4-oxadiazol-3-yl]phenyl]methyl]acetamide]
≥ 80%: pest or weed control at 200 ppm [1] | pest or weed control at 200 ppm [2] | pest or weed control at 200 ppm (Phakopsora pachyrhizi) | inhibition of growth at 20 ppm [3]

O=C(NCc1ccc(-c2noc(C(F)(F)F)n2)cc1F)C1CC1(F)F (stereo not drawn) [Compound 1.61, 2,2-difluoro-N-[[2-fluoro-4-[5-(trifluoromethyl)-1,2,4-oxadiazol-3-yl]phenyl]methyl] cyclopropanecarboxamide]
≥ 80%: pest or weed control at 200 ppm [1] | pest or weed control at 200 ppm [2] | pest or weed control at 200 ppm (Phakopsora pachyrhizi) | inhibition of growth at 20 ppm [3]

O=C(NCCc1ccc(-c2noc(C(F)(F)F)n2)cc1)C1CCOC1 (stereo not drawn) [Compound 1.100, N-[2-[4-[5-(trifluoromethyl)-1,2,4-oxadiazol-3-yl]phenyl]ethyl] tetrahydrofuran-3-carboxamide]
≥ 80%: pest or weed control at 200 ppm [1] | pest or weed control at 200 ppm [2] | pest or weed control at 200 ppm (Phakopsora pachyrhizi) | inhibition of growth at 20 ppm [3]

CC1(C(=O)NCc2ccc(-c3noc(C(F)(F)F)n3)cc2)CCCCC1 [Compound 1.21, 1-methyl-N-[[4-[5-(trifluoromethyl)-1,2,4-oxadiazol-3-yl]phenyl]methyl] cyclohexanecarboxamide]
≥ 80%: pest or weed control at 200 ppm [1] | pest or weed control at 200 ppm [2] | pest or weed control at 200 ppm (Phakopsora pachyrhizi) | inhibition of growth at 20 ppm [3]

CC1(C(=O)NCc2ccc(-c3noc(C(F)(F)F)n3)cc2)CC1 [Compound 1.25, 1-methyl-N-[[4-[5-(trifluoromethyl)-1,2,4-oxadiazol-3-yl]phenyl]methyl] cyclopropanecarboxamide]
≥ 80%: pest or weed control at 200 ppm [1] | pest or weed control at 200 ppm [2] | pest or weed control at 200 ppm (Phakopsora pachyrhizi) | inhibition of growth at 20 ppm [3]

O=C(NCc1ccc(-c2noc(C(F)(F)F)n2)c(F)c1F)C1CC1(F)F (stereo not drawn) [Compound 1.72, N-[[2,3-difluoro-4-[5-(trifluoromethyl)-1,2,4-oxadiazol-3-yl]phenyl]methyl]-2,2-difluoro-cyclopropanecarboxamide]
≥ 80%: pest or weed control at 200 ppm [1] | pest or weed control at 200 ppm [2] | pest or weed control at 200 ppm (Phakopsora pachyrhizi) | inhibition of growth at 20 ppm [3]

O=C(NCCc1ccc(-c2noc(C(F)(F)F)n2)cc1)C1CCC1 [Compound 1.101, N-[2-[4-[5-(trifluoromethyl)-1,2,4-oxadiazol-3-yl]phenyl]ethyl] cyclobutanecarboxamide]
≥ 80%: pest or weed control at 200 ppm [1] | pest or weed control at 200 ppm [2] | pest or weed control at 200 ppm (Phakopsora pachyrhizi) | inhibition of growth at 20 ppm [3]

O=C(NCc1ccc(-c2noc(C(F)(F)F)n2)cc1)C1CCC1 [Compound 1.22, N-[[4-[5-(trifluoromethyl)-1,2,4-oxadiazol-3-yl]phenyl]methyl] cyclobutanecarboxamide]
≥ 80%: pest or weed control at 200 ppm [1] | pest or weed control at 200 ppm [2] | pest or weed control at 200 ppm (Phakopsora pachyrhizi) | inhibition of growth at 20 ppm [3]

O=C(CC1CC1)NCCc1ccc(-c2noc(C(F)(F)F)n2)cc1 [Compound 1.105, 2-cyclopropyl-N-[2-[4-[5-(trifluoromethyl)-1,2,4-oxadiazol-3-yl]phenyl]ethyl]acetamide]
≥ 80%: pest or weed control at 200 ppm [1] | pest or weed control at 200 ppm [2] | pest or weed control at 200 ppm (Phakopsora pachyrhizi) | inhibition of growth at 20 ppm [3]

O=C(CC1CC1)NCc1ccc(-c2noc(C(F)(F)F)n2)c(F)c1 [Compound 1.92, 2-cyclopropyl-N-[[3-fluoro-4-[5-(trifluoromethyl)-1,2,4-oxadiazol-3-yl]phenyl]methyl]acetamide]
≥ 80%: pest or weed control at 200 ppm [1] | pest or weed control at 200 ppm [2] | pest or weed control at 200 ppm (Phakopsora pachyrhizi) | inhibition of growth at 20 ppm [3]

O=C(NCc1ccc(-c2noc(C(F)(F)F)n2)cc1)C1CCCC1 [Compound 1.16, N-[[4-[5-(trifluoromethyl)-1,2,4-oxadiazol-3-yl]phenyl]methyl] cyclopentanecarboxamide]
≥ 80%: pest or weed control at 200 ppm [1] | pest or weed control at 200 ppm [2] | pest or weed control at 200 ppm (Phakopsora pachyrhizi) | inhibition of growth at 20 ppm [3]

CC1(C(=O)NCc2ccc(-c3noc(C(F)(F)F)n3)cc2)COC1 [Compound 1.54, 3-methyl-N-[[4-[5-(trifluoromethyl)-1,2,4-oxadiazol-3-yl]phenyl]methyl] oxetane-3-carboxamide]
≥ 80%: pest or weed control at 200 ppm [1] | pest or weed control at 200 ppm [2] | pest or weed control at 200 ppm (Phakopsora pachyrhizi) | inhibition of growth at 20 ppm [3]
